Where two headings read alike, the source gives them in different places.
Columns and labels:
Assay type in all cases: cell-based
Escherichia coli = assay: MIC measurement in agar medium (dilution test), Coli; conditions: potentiator alone
Text: Inhibitory minimum concentration measurement tests are made in a solid agar medium according to international standards in force (CLSI M7-A9 Jan 12 standards): dispersion of the compounds to be tested in a Mueller Hinton gelose. An adaptation relating to the hydrophobicity of compounds and compositions is however necessary to disperse them in the medium: dilution of the compounds in a solvent. The compounds and compositions incorporated in the agar medium can be diluted beforehand in one or more solvents (Tween® 80 diluted with water, Tween® 80 diluted with […], DMSO diluted with water). The strains are deposited onto the agar surface with a steers apparatus. In the examples, different dissolution methods for products are tested in parallel to circumvent the problems of water/solvent distribution coefficient of the molecules (antimicrobial and potentiator) whereas the bacteria grow only in the aqueous phase. The technical requirement will not intervene in in vivo tests. The same dilution methods can be implemented in a liquid medium (microplates and tubes). The same methodology is implemented with fungi. […] MIC measurement: the minimum inhibitory concentration measurement tests are made in an agar solid medium according to international standards in force (CLSI standards), according to the previously defined protocol. […] The booster contribution as compared with the MIC of the antibiotic alone is expressed in a (MIC ATB)/(MIC ATB+booster) ratio. Thereby, gains are defined: […]

[1] = tested on: bacterial strains (Pyo, Coli, Staph); assay: MIC measurement in agar medium, tested bacterial strains overall; conditions: compound alone, depending on the strains
Text: Inhibitory minimum concentration measurement tests are made in a solid agar medium according to international standards in force (CLSI M7-A9 Jan 12 standards): dispersion of the compounds to be tested in a Mueller Hinton gelose. An adaptation relating to the hydrophobicity of compounds and compositions is however necessary to disperse them in the medium: dilution of the compounds in a solvent. The compounds and compositions incorporated in the agar medium can be diluted beforehand in one or more solvents (Tween® 80 diluted with water, Tween® 80 diluted with […], DMSO diluted with water). The strains are deposited onto the agar surface with a steers apparatus. In the examples, different dissolution methods for products are tested in parallel to circumvent the problems of water/solvent distribution coefficient of the molecules (antimicrobial and potentiator) whereas the bacteria grow only in the aqueous phase. The technical requirement will not intervene in in vivo tests. The same dilution methods can be implemented in a liquid medium (microplates and tubes). The same methodology is implemented with fungi. MIC measurement: the minimum inhibitory concentration measurement tests are made in an agar solid medium according to international standards in force (CLSI standards), according to the previously defined protocol. […] [table]

Pseudomonas Strain 08131 = assay: Etest, Pseudomonas Strain 08131; conditions: for MIC: Pseudomonas, STRAIN08131, Strain 08131, read-out: MIC of Pipera tazo; for MIC of Meropenem: Strain 08131
Text: (§1) The corresponding tests are made based on the usual MIC test: the Etest® (Biomerieux) strip is deposited onto the surface of a seeded agar medium in which the booster has been incorporated. This test enables solvent effect risks, that is a possible interaction with the solvent used in vitro, to be minimised.
(§2) The control corresponds to the test made without cineol. A control is made in each solvent tested: distilled water, Tween/water and DMSO.
(§3) ED control=antibiotic alone in distilled water
(§4) DMSO control=antibiotic alone in DMSO
(§5) TE control=antibiotic alone in Tween® 80

MRSA 10178 = assay: Etest, staphylococci MRSA 10178; conditions: MRSA 10178
Text: as §1, §2, §3, §4, §5

MSSA 8237 = assay: Etest, staphylococci MSSA 8237; conditions: for MIC: Staphylococcus aureus, MSSA
Text: as §1, §2, §3, §4, §5

[2] = tested on: Strain 09003, methicillin resistant S. aureus (MRSA); assay: Resistance test (resistant mutants), Strain 09003; conditions: MRSA, text after Table 15
Procedure: After 48 h incubation, the presence or absence of colonies likely to be resistant mutants is observed.
ED control or DMSO=only distilled water or DMSO is added
Ciprofloxacine DMSO: addition of Ciprofloxacine in DMSO

[3] = booster 1 mg/L in agar, Tween/water
[4] = booster 4 mg/L in agar, Tween/water
[5] = booster 16 mg/L in agar, Tween/water
[6] = MSSA 8237, booster 1 mg/L in agar, DMSO
[7] = MSSA 8237, booster 1 mg/L in agar, Tween/water
[8] = MSSA 8237, booster 4 mg/L in agar, DMSO
[9] = MSSA 8237, booster 4 mg/L in agar, Tween/water
[10] = MSSA 8237, booster 16 mg/L in agar, DMSO
[11] = MSSA 8237, booster 16 mg/L in agar, Tween/water

CC(=O)OCC=Cc1ccccc1 [AC, cinnamyl acetate]
MIC 50 (Escherichia coli; solvent DMSO): 1.00% | MIC 90 (Escherichia coli; solvent DMSO): 1.00% | MIC 50 (Escherichia coli; solvent Tween/prop glyc): >1% | MIC 90 (Escherichia coli; solvent Tween/prop glyc): >1% | MIC 50 (Escherichia coli; solvent Tween/water): >1% | MIC 90 (Escherichia coli; solvent Tween/water): >1% | MIC 50 (Escherichia coli; solvent water/water): >1% | MIC 90 (Escherichia coli; solvent water/water): >1% | MIC [1]: > 10000 µg/mL | MIC (Pseudomonas Strain 08131; booster 1 mg/L in agar, DMSO): 6 µg/mL | MIC (Pseudomonas Strain 08131; [3]): 6 µg/mL | MIC (Pseudomonas Strain 08131; booster 4 mg/L in agar, DMSO): 3 µg/mL | MIC (Pseudomonas Strain 08131; [4]): 3 µg/mL | MIC (Pseudomonas Strain 08131; booster 16 mg/L in agar, DMSO): 3 µg/mL | MIC (Pseudomonas Strain 08131; [5]): 3 µg/mL | MIC of Meropenem (Pseudomonas Strain 08131; booster 1 mg/L in agar, DMSO): 1.5 µg/mL | MIC of Meropenem (Pseudomonas Strain 08131; [3]): 2 µg/mL | MIC of Meropenem (Pseudomonas Strain 08131; booster 4 mg/L in agar, DMSO): 0.75 µg/mL | MIC of Meropenem (Pseudomonas Strain 08131; [4]): 0.5 µg/mL | MIC of Meropenem (Pseudomonas Strain 08131; booster 16 mg/L in agar, DMSO): 0.75 µg/mL | MIC of Meropenem (Pseudomonas Strain 08131; [5]): 0.38 µg/mL | MIC of Cefoxitine (MRSA 10178; booster 1 mg/L in agar, DMSO): 4 µg/mL | MIC of Tigecycline (MRSA 10178; booster 1 mg/L in agar, DMSO): 0.125 µg/mL | MIC of Cefoxitine (MRSA 10178; [3]): 4 µg/mL | MIC of Tigecycline (MRSA 10178; [3]): 0.125 µg/mL | MIC of Cefoxitine (MRSA 10178; booster 4 mg/L in agar, DMSO): 1 µg/mL | MIC of Tigecycline (MRSA 10178; booster 4 mg/L in agar, DMSO): 0.047 µg/mL | MIC of Cefoxitine (MRSA 10178; [4]): 0.75 µg/mL | MIC of Tigecycline (MRSA 10178; [4]): 0.047 µg/mL | MIC of Cefoxitine (MRSA 10178; booster 16 mg/L in agar, DMSO): <0.016 µg/mL | MIC of Tigecycline (MRSA 10178; booster 16 mg/L in agar, DMSO): <0.016 µg/mL | MIC of Cefoxitine (MRSA 10178; [5]): <0.016 µg/mL | MIC of Tigecycline (MRSA 10178; [5]): <0.016 µg/mL | MIC of Cefoxitine (MSSA 8237; [6]): 2 µg/mL | MIC of Meropenem (MSSA 8237; [6]): 0.25 µg/mL | MIC of Penicillin G (MSSA 8237; [6]): 0.25 µg/mL | MIC of Cefoxitine (MSSA 8237; [7]): 3 µg/mL | MIC of Meropenem (MSSA 8237; [7]): 0.25 µg/mL | MIC of Penicillin G (MSSA 8237; [7]): 0.5 µg/mL | MIC of Cefoxitine (MSSA 8237; [8]): 3 µg/mL | MIC of Meropenem (MSSA 8237; [8]): 0.19 µg/mL | MIC of Penicillin G (MSSA 8237; [8]): 0.19 µg/mL | MIC of Cefoxitine (MSSA 8237; [9]): 2 µg/mL | MIC of Meropenem (MSSA 8237; [9]): 0.19 µg/mL | MIC of Penicillin G (MSSA 8237; [9]): 0.125 µg/mL | MIC of Cefoxitine (MSSA 8237; [10]): <0.016 µg/mL | MIC of Meropenem (MSSA 8237; [10]): <0.002 µg/mL | MIC of Penicillin G (MSSA 8237; [10]): <0.002 µg/mL | MIC of Cefoxitine (MSSA 8237; [11]): 1.5 µg/mL | MIC of Meropenem (MSSA 8237; [11]): 0.064 µg/mL | MIC of Penicillin G (MSSA 8237; [11]): 0.064 µg/mL | MIC (MSSA 8237; MSSA 8237, booster 1 mg/L in agar, DMSO, read-out: MIC of Clindamycine): 0.047 µg/mL | MIC (MSSA 8237; MSSA 8237, booster 1 mg/L in agar, Tween/water, read-out: MIC of Clindamycine): 0.047 µg/mL | MIC (MSSA 8237; MSSA 8237, booster 4 mg/L in agar, DMSO, read-out: MIC of Clindamycine): 0.047 µg/mL | MIC (MSSA 8237; MSSA 8237, booster 4 mg/L in agar, Tween/water, read-out: MIC of Clindamycine): 0.064 µg/mL | MIC (MSSA 8237; MSSA 8237, booster 16 mg/L in agar, DMSO, read-out: MIC of Clindamycine): < 0.016 µg/mL | MIC (MSSA 8237; MSSA 8237, booster 16 mg/L in agar, Tween/water, read-out: MIC of Clindamycine): 0.125 µg/mL | MIC (MSSA 8237; read-out: MIC of Pipera tazo, MSSA 8237, booster 1 mg/L in agar, DMSO): 0.75 µg/mL | MIC (MSSA 8237; read-out: MIC of Pipera tazo, MSSA 8237, booster 1 mg/L in agar, Tween/water): 1 µg/mL | MIC (MSSA 8237; read-out: MIC of Pipera tazo, MSSA 8237, booster 4 mg/L in agar, DMSO): 0.5 µg/mL | MIC (MSSA 8237; read-out: MIC of Pipera tazo, MSSA 8237, booster 4 mg/L in agar, Tween/water): 0.5 µg/mL | MIC (MSSA 8237; read-out: MIC of Pipera tazo, MSSA 8237, booster 16 mg/L in agar, Tween/water): 0.38 µg/mL | occurrence of mutants on addition of the compound to ciprofloxacine [2]: does not cause the occurrence of mutants any longer
